Results taken from US20230069174A1, “NITROGEN-CONTAINING HETEROCYCLIC AUTOTAXIN INHIBITOR, AND COMPOSITION CONTAINING SAME AND USE THEREOF” (SICHUAN HAISCO PHARMACEUTICAL CO., LTD., priority 2019, published 2023).
Like-named read-outs stand apart in the source and are kept apart here.

Columns and labels:
[1] = biological target: T1, ATX (Homo sapiens, UniProt Q13822); assay: ATX inhibitory activity: LPA production in pooled human plasma, LC-MS-MS; format: biochemical; conditions: 37° C. 2 h
T1 construct: ATX activity was detected by detecting LPA production in pooled human plasma; from tissue; host or cells: pooled human plasma (heparin-anticoagulated whole blood, centrifuged)
Method: Experimental subject: compounds to be tested.
ATX activity was detected by detecting LPA production in pooled human plasma. Whole blood anticoagulated with heparin was collected and centrifuged, and then plasma was collected. 5-μL gradient dilution of the compound to be tested or DMSO was added to 95-μL plasma, incubated at 37° C. for 2 h, then a stop solution (40 mM disodium hydrogen phosphate buffer, containing a buffer solution (containing 30 mM citric acid, pH=4)) was added. LPA in plasma was detected by LC-MS-MS before and after incubation.
LPA (18:2) and (20:4) LC-MS-MS analytical method
Using a 1.5 mL EP tube, 3.0 μL of each of the working solutions for standard curve and quality control was taken and added to 27.0 μL of water. After homogeneously mixing by vortex, 400 μL of internal standard solution was added. After homogeneously mixing by vortex, the mixture was centrifuged at 4° C. for 10 min. 180 μL of supernatant was taken and added into a 96-well plate, waiting for sample injection.
10 μL of the compound to be tested (10 mg/ml) was precisely pipetted into an EP tube, 990 μL of DMSO solution was added, and the mixture was vortexed to completely dissolve to obtain a solution (100 μg/mL).
Inhibition rate of ATX receptor activity was calculated in the following way: inhibition rate %=((LPAc−LPA0)−(LPAi−LPA0))/(LPAc−LPA0)*100%, wherein LPAc was the LPA content in plasma after DMSO was added and incubated for 2 h, LPA0 was the LPA content in plasma before DMSO was added for incubation, and LPAi was the LPA content in plasma after test compound was added and incubated for 2 h.

[2] = Pharmacokinetic experiment in mice (single dose iv and intragastric); format: in vivo; conditions: mouse, plasma, male C57 mice
Method: Experimental objective: In this experiment, a single dose of each test compound was administered to C57 mice intravenously and intragastrically, the concentrations of the compounds 35, 37 and 38 in plasma of the mice were measured, and the pharmacokinetic characteristics and bioavailability of each test compound in mice were evaluated.
Experimental animals: Male C57 mice, 20-25 g, 6-8 weeks old, 18 mice/compound. The experimental animals were purchased from CHENGDU DOSSY EXPERIMENTAL ANIMALS CO., LTD.
Experimental method: On the day of the experiment, 18 C57 mice were randomly grouped according to their body weight. The animals were fasted with water available for 12 to 14 hours one day before the administration of a test compound, and were fed 4 hours after the administration.
Before and after the administration, 0.08 ml of blood was taken from the orbit of the […] under isoflurane anesthesia, and placed in an EDTAK2 centrifuge tube. Centrifugation was carried out at 5000 rpm at 4° C. for 10 min and the plasma was collected.
Time points for plasma collection in G1 group: 0, 5, 15, 30 min, 1, 2, 4, 6, 8, and 24 h.
Time points for plasma collection in G2 group: 0, 15, 30 min, 1, 2, 4, 6, 8, and 24 h.
Before analysis and detection, all samples were stored at −80° C.
30 μL of each of plasma sample, standard curve and quality control sample was taken, and 200 μL of acetonitrile solution containing internal standard was added, and the mixture was homogeneously mixed by vortex, and then centrifuged at 12000 rpm for 10 min at 4° C. The supernatant was taken and added into a 96-well plate and analyzed by LC-MS/MS.
The main pharmacokinetic parameters were analyzed by non-compartmental model using WinNonlin 8.0 software.

[3] = LPA 18:2 readout, read-out: Inhibitory activity against ATX receptor, LPA 18:2 IC50
[4] = LPA 20:4 readout, read-out: Inhibitory activity against ATX receptor, LPA 20:4 IC50

With `O=C(Cc1nnc(-c2cnc(NC3Cc4ccc(-c5ccoc5)cc4C3)nc2)o1)N1CCc2[nH]nnc2C1` (stereo not drawn) [Compound 28, 2-(5-(2-((5-(furan-3-yl)-2,3-dihydro-1H-inden-2-yl)amino)pyrimidin-5-yl)-1,3,4-oxadiazol-2-yl)-1-(1,4,6,7-tetrahydro-5H-[1,2,3]triazolo[4,5-c]pyridin-5-yl)ethan-1-one] the IC50 [1, 3] was 5.24 nM and the IC50 [1, 4] was 5.4 nM.
With `O=C(Cc1nnc(-c2cnc(NC3Cc4cc5c(cc4C3)OCO5)nc2)o1)N1CCc2nn[nH]c2C1` [Compound 29, 2-(5-(2-((6,7-dihydro-5H-indeno[5,6-d][1,3]dioxol-6-yl)amino)pyrimidin-5-yl)-1,3,4-oxadiazol-2-yl)-1-(3,4,6,7-tetrahydro-5H-[1,2,3]triazolo[4,5-c]pyridin-5-yl)ethan-1-one] the IC50 [1, 3] was 2.75 nM and the IC50 [1, 4] was 3.27 nM.
Molecule `N#Cc1nc(CC(=O)N2CCc3[nH]nnc3C2)oc1-c1cnc(NC2Cc3ccccc3C2)nc1` [Compound 22, 5-(2-((2,3-dihydro-1H-inden-2-yl)amino)pyrimidin-5-yl)-2-(2-oxo-2-(1,4,6,7-tetrahydro-5H-[1,2,3]triazolo[4,5-c]pyridin-5-yl)ethyl)oxazole-4-carbonitrile] has an IC50 [1, 3] of 4.97 nM and an IC50 [1, 4] of 6.84 nM.
Molecule `O=C(N1CCc2[nH]nnc2C1)C1(c2nnc(-c3cnc(NC4Cc5ccccc5C4)nc3)o2)CC1` [Compound 4, (1-(5-(2-((2,3-dihydro-1H-inden-2-yl)amino)pyrimidin-5-yl)-1,3,4-oxadiazol-2-yl)cyclopropyl)(1,4,6,7-tetrahydro-5H-[1,2,3]triazolo[4,5-c]pyridin-5-yl)methanone] has an IC50 [1, 3] of 4.93 nM and an IC50 [1, 4] of 5.33 nM.
In the case of `O=C(NC1(c2nnc(-c3cnc(NC4Cc5ccccc5C4)nc3)o2)CC1)N1CCc2[nH]nnc2C1` [Compound 14, N-(1-(5-(2-((2,3-dihydro-1H-inden-2-yl)amino)pyrimidin-5-yl)-1,3,4-oxadiazol-2-yl)cyclopropyl)-1,4,6,7-tetrahydro-5H-[1,2,3]triazolo[4,5-c]pyridine-5-carboxamide], the IC50 [1, 3] is reported as 5.97 nM and the IC50 [1, 4] is reported as 6.56 nM.
`C[C@@](F)(C(=O)N1CCc2[nH]nnc2C1)c1nnc(-c2cnc(NC3Cc4ccccc4C3)nc2)o1` (single isomer, unassigned) [Compound 38] gave a bioavailability ([2]; po 10 mg/kg vs iv 2.5 mg/kg, read-out: F (bioavailability)) of 59.3%, an AUC ([2]; iv 2.5 mg/kg) of 1480 ng·h/mL and a C0 ([2]; iv 2.5 mg/kg) of 3330 ng/mL. For the same molecule, the half-life ([2]; iv 2.5 mg/kg) was 33.1 min, the AUC ([2]; po 10 mg/kg) was 3500 ng·h/mL and the Cmax ([2]; po 10 mg/kg) was 3590 ng/mL. The Tmax ([2]; po 10 mg/kg) was 15 min, the half-life ([2]; po 10 mg/kg) was 48.3 min and the IC50 [1, 3] was 5.53 nM. For the same molecule, the IC50 [1, 4] was 5.88 nM.
With `C#Cc1ccc2c(c1)C[C@@H](Nc1ncc(-c3nnc(CC(=O)N4CCc5[nH]nnc5C4)o3)cn1)C2` (single isomer, unassigned) [Compound 40] the IC50 [1, 3] was 1.51 nM and the IC50 [1, 4] was 1.56 nM.
With `O=C(Cn1cc(-c2cnc(NC3Cc4ccccc4C3)nc2)c(OC2CC2)n1)N1CCc2[nH]nnc2C1` [Compound 1, 2-(3-cyclopropoxy-4-(2-((2,3-dihydro-1H-inden-2-yl)amino)pyrimidin-5-yl)-1H-pyrazol-1-yl)-1-(1,4,6,7-tetrahydro-5H-[1,2,3]triazolo[4,5-c]pyridin-5-yl)ethan-1-one] the IC50 [1, 3] was 8.53 nM.
For `N#Cc1nn(CC(=O)N2CCc3[nH]nnc3C2)cc1-c1cnc(NC2Cc3ccccc3C2)nc1` [Compound 2, 4-(2-((2,3-dihydro-1H-inden-2-yl)amino)pyrimidin-5-yl)-1-(2-oxo-2-(1,4,6,7-tetrahydro-5H-[1,2,3]triazolo[4,5-c]pyridin-5-yl)ethyl)-1H-pyrazole-3-carbonitrile], the IC50 [1, 3] was 6.19 nM and the IC50 [1, 4] was 6.85 nM.
Molecule `N#Cc1ccc2c(c1)CC(Nc1ncc(-c3nnc(CC(=O)N4CCc5[nH]nnc5C4)o3)cn1)C2` (stereo not drawn) [Compound 8, 2-((5-(5-(2-(6,7-dihydro-1H-[1,2,3]triazolo[4,5-c]pyridin-5(4H)-yl)-2-oxoethyl)-1,3,4-oxadiazol-2-yl)pyrimidin-2-yl)amino)-2,3-dihydro-1H-indene-5-carbonitrile] has an IC50 [1, 3] of 5.94 nM and an IC50 [1, 4] of 6.18 nM.
For `C#Cc1ccc2c(c1)CC(Nc1ncc(-c3nnc(CC(=O)N4CCc5[nH]nnc5C4)o3)cn1)C2` (stereo not drawn) [Compound 31, 2-(5-(2-((5-ethynyl-2,3-dihydro-1H-inden-2-yl)amino)pyrimidin-5-yl)-1,3,4-oxadiazol-2-yl)-1-(1,4,6,7-tetrahydro-5H-[1,2,3]triazolo[4,5-c]pyridin-5-yl)ethan-1-one], the IC50 [1, 3] was 2.61 nM and the IC50 [1, 4] was 2.85 nM.
`O=C(Cc1nnc(-c2cnc(NC3Cc4ccc(C5CC5)cc4C3)nc2)o1)N1CCc2[nH]nnc2C1` (stereo not drawn) [Compound 7, 2-(5-(2-((5-cyclopropyl-2,3-dihydro-1H-inden-2-yl)amino)pyrimidin-5-yl)-1,3,4-oxadiazol-2-yl)-1-(1,4,6,7-tetrahydro-5H-[1,2,3]triazolo[4,5-c]pyridin-5-yl)ethan-1-one] gave an IC50 [1, 3] of 7.46 nM and an IC50 [1, 4] of 7.67 nM.
For `O=C(Cc1nnc(-c2cnc(NC3Cc4cc5c(cc4C3)CC5)nc2)o1)N1CCc2[nH]nnc2C1` [Compound 30, 2-(5-(2-((2,4,5,6-tetrahydro-1H-cyclobuta[f]inden-5-yl)amino)pyrimidin-5-yl)-1,3,4-oxadiazol-2-yl)-1-(1,4,6,7-tetrahydro-5H-[1,2,3]triazolo[4,5-c]pyridin-5-yl)ethan-1-one], the IC50 [1, 3] was 1.58 nM and the IC50 [1, 4] was 1.92 nM.
With `O=C(N1CCc2[nH]nnc2C1)C1(c2nnc(-c3cnc(NC4Cc5ccccc5C4)nc3)o2)CCC1` [Compound 20, (1-(5-(2-((2,3-dihydro-1H-inden-2-yl)amino)pyrimidin-5-yl)-1,3,4-oxadiazol-2-yl)cyclobutyl)(1,4,6,7-tetrahydro-5H-[1,2,3]triazolo[4,5-c]pyridin-5-yl)methanone] the IC50 [1, 3] was 3.65 nM and the IC50 [1, 4] was 3.76 nM.
`O=C(Cc1nnc(-c2cnc(NC3Cc4ccc(C(F)F)cc4C3)nc2)o1)N1CCc2[nH]nnc2C1` (stereo not drawn) [Compound 9, 2-(5-(2-((5-(difluoromethyl)-2,3-dihydro-1H-inden-2-yl)amino)pyrimidin-5-yl)-1,3,4-oxadiazol-2-yl)-1-(1,4,6,7-tetrahydro-5H-[1,2,3]triazolo[4,5-c]pyridin-5-yl)ethan-1-one] showed an IC50 [1, 3] of 3.26 nM and an IC50 [1, 4] of 3.65 nM.
In the case of `O=C(Cc1nnc(-c2cnc(NC3Cc4cscc4C3)nc2)o1)N1CCc2[nH]nnc2C1` [Compound 26, 2-(5-(2-((5,6-dihydro-4H-cyclopenta[c]thiophen-5-yl)amino)pyrimidin-5-yl)-1,3,4-oxadiazol-2-yl)-1-(1,4,6,7-tetrahydro-5H-[1,2,3]triazolo[4,5-c]pyridin-5-yl)ethan-1-one], the IC50 [1, 3] is reported as 8.73 nM and the IC50 [1, 4] is reported as 8.86 nM.
Molecule `O=C(Cc1nnc(-c2cnc(N[C@H]3Cc4ccc(-c5ccoc5)cc4C3)nc2)o1)N1CCc2[nH]nnc2C1` (single isomer, unassigned) [Compound 42] has an IC50 [1, 3] of 2.86 nM and an IC50 [1, 4] of 2.69 nM.
For `CNC(=O)c1nn(CC(=O)N2CCc3[nH]nnc3C2)cc1-c1cnc(NC2Cc3ccccc3C2)nc1` [Compound 3, 4-(2-((2,3-dihydro-1H-inden-2-yl)amino)pyrimidin-5-yl)-N-methyl-1-(2-oxo-2-(1,4,6,7-tetrahydro-5H-[1,2,3]triazolo[4,5-c]pyridin-5-yl)ethyl)-1H-pyrazole-3-carboxamide], the IC50 [1, 3] was 5.68 nM and the IC50 [1, 4] was 5.65 nM.
For `CC(F)(C(=O)N1CCc2[nH]nnc2C1)c1nnc(-c2cnc(NC3Cc4ccccc4C3)nc2)o1` (stereo not drawn) [Compound 27, 2-(5-(2-((2,3-dihydro-1H-inden-2-yl)amino)pyrimidin-5-yl)-1,3,4-oxadiazol-2-yl)-2-fluoro-1-(1,4,6,7-tetrahydro-5H-[1,2,3]triazolo[4,5-c]pyridin-5-yl)propan-1-one], the IC50 [1, 3] was 6.26 nM and the IC50 [1, 4] was 7.08 nM.
